# Results filed as inconclusive are left out. Activity calls are given as the source filed them.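 How the source made its calls: active means Green signal of the normal strain falls at least twice as much as red signal of the resistant mutant, with overall culture growth loss under a set limit; inconclusive means no clear call, values can overlap the other calls; inactive means the rest.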
# Tested on: E. coli WT ribosome GFP fluorescence, mixed culture, 24 h
# Experiment: growth inhibition of wild-type GFP E. coli, dose response, h38 mutant RFP, cherry-pick (AID 977622)
# [1] = E. coli mixed culture, 24 h, measured here: total growth OD600
SMILES,AC50,AC50 [1] [µM]
CCN(c1ccccc1)S(=O)(=O)c1ccc(Cl)c(NC(=O)CSc2n[nH]c(N)n2)c1,> 100 µM (inactive),> 100
CCN(C(=O)c1ccnc(C(C)(C)C)c1)c1ccccc1,> 100 µM (inactive),–
Cc1ccc2nc(-c3ccc(Cl)cc3)c(Cc3ccccc3C(F)(F)F)n2c1,–,> 100
COc1ccc(OC2C(=O)N(Cc3ccc4c(c3)OCO4)C2c2sccc2C)cc1 (stereo not given),> 100 µM (inactive),–
O=C(CCCOc1ccc(Cl)cc1Cl)Nc1ccccc1C(=O)O,> 100 µM (inactive),–
Cc1ccc(N(CC(O)Cn2nc(C)cc2C)S(=O)(=O)c2ccc3ccccc3c2)cc1 (stereo not given),> 100 µM (inactive),43.1
O=C(CSc1nnc(COc2cccc3cccnc23)o1)c1ccc(F)cc1,–,> 100
COc1ccc(C#Cc2ccc([C@@H]3[C@@H](CO)N4CCCCN(C(=O)Nc5ccc(F)cc5)C[C@H]34)cc2)cc1,–,50.6
Cc1cccc(N2CCN(Cc3nc(-c4ccc(F)cc4F)oc3C)CC2)n1,–,> 100
FC(F)(F)c1ccc(Cl)c(-n2c(Cc3cccs3)n[nH]c2=S)c1,> 100 µM (inactive),–
COc1ccc(CNS(=O)(=O)c2ccc3c(c2)NC(=O)C(C)S3)cc1 (stereo not given),> 100 µM (inactive),–
O=C(Nc1ccn(Cc2ccc(Cl)cc2)n1)c1ccccc1,–,> 100
Cc1ccc(-c2cc(-c3ccc(C)cc3)[n+](-c3ccc(C(=O)[O-])cc3)c(-c3ccc(C)cc3)c2)cc1,> 100 µM (inactive),–
COc1ccc(NC(=O)CN(c2ccccc2OC)S(=O)(=O)c2cccs2)cc1Cl,–,> 100
O=S(=O)(NCc1ccc2c(c1)OCO2)c1ccc2c(c1)oc1ccccc12,> 100 µM (inactive),40.8
O=C(Nc1ccc(C(=O)Nc2ccccc2Cl)cc1)c1cccnc1,–,> 100
Cc1ccccc1-n1ncc2c1CC(C)(C)CC2NC(=O)CCN1Cc2ccccc2C1=O (stereo not given),> 100 µM (inactive),> 100
O=C(Cc1cccc(NC(=O)C2CCN(C(=O)C3CCCCC3)CC2)c1)Nc1cccc(C(=O)N2CCCC2)c1,> 100 µM (inactive),> 100
S=C1SCN(Cc2cccnc2)CN1Cc1ccccc1,> 100 µM (inactive),–
O=C(CCc1nc2ccccc2s1)OCC(=O)c1ccc[nH]1,> 100 µM (inactive),–
O=S1(=O)N[C@H](Cc2ccccc2)COc2cc(N3CCSCC3)ccc21,–,> 100
NS(=O)(=O)c1cccc(NC(=O)c2cccc(-c3ccc(O)cc3)c2)c1,> 100 µM (inactive),50.2

SMILES,AC50,AC50 [1] [µM]
C[C@@H]1CN([C@H](C)CO)C(=O)CCCn2nncc2CO[C@@H]1CN(C)C(=O)Nc1ccc(C(F)(F)F)cc1,> 100 µM (inactive),–
O=c1[nH]c(C2CCN(S(=O)(=O)c3ccc4c(c3)OCCO4)CC2)nc2c1nnn2Cc1ccccc1F,> 100 µM (inactive),–
C[C@H]1CN([C@@H](C)CO)C(=O)CCCn2nncc2CO[C@@H]1CN(C)Cc1ccccc1C(F)(F)F,–,> 100
CC(CCC(=O)O)C1CC[C@@]2(C)C3C(=O)CC4C(C)(C)C(O)CC[C@]4(C)C3C(=O)C[C@]12C (stereo not given in full),> 100 µM (inactive),> 100
Cc1nn(-c2ccc(N3CCCCC3)nn2)c(C)c1CCC(=O)Nc1ccc(F)cc1,> 100 µM (inactive),–
Fc1ccc(Br)cc1SCCc1ccncc1,–,> 100
Cc1ccc(Nc2cc(C(=O)NCCCN3CCOCC3)c3ccccc3n2)cc1C,> 100 µM (inactive),> 100
Cc1cc(C)c(OCCNC(=O)c2ccccc2Sc2ccccc2C#N)c(C)c1,> 100 µM (inactive),–
COc1ccccc1C(=O)Nc1ccc2c(c1)nc1n2CCN(C2CCCCC2)C1,> 100 µM (inactive),–
CSc1ccc(CN(C)C(=O)C(c2ccccc2)c2ccccc2)cc1,–,> 100
O=C(CC(c1ccccc1)c1cc(Br)ccc1O)N1CCCC1 (stereo not given),> 100 µM (inactive),–
O=[N+]([O-])c1ccc(N2CCOCC2)c2c1no[n+]2[O-],> 100 µM (inactive),> 100
CCOc1ccccc1N1CC(C(=O)Nc2cccc(S(=O)(=O)N3CCCCC3)c2)CC1=O (stereo not given),–,> 100
CC(C)(CC(=O)O)CC(=O)NCc1c(Cl)cccc1Sc1ccc(Cl)cc1,–,> 100
CN1OC[C@@H]2CN(C(=O)c3ccco3)[C@H](c3ccc(-c4ccc(C#N)cc4)cc3)C[C@@H]21,–,> 100
O=S(=O)(c1ccccc1)N1C[C@H]2[C@@H](c3ccccc31)[C@@H](CO)N2Cc1ccccc1,> 100 µM (inactive),–
COc1ccc(CN2CCC3CC2c2cc(Cl)ccc23)cc1 (stereo not given),–,> 100
NC(=O)c1ccsc1NC(=O)COC(=O)Cc1ccc(F)cc1,–,> 100
Brc1ccc(-n2cnc(-c3ccccc3)c2)cc1,> 100 µM (inactive),–
Fc1ccc(-c2nnc(-c3ccc4ccccc4c3)o2)cc1,> 100 µM (inactive),–
COC(=O)C[C@H]1C[C@@H]2c3cc(NC(=O)Nc4ccc(C(F)(F)F)cc4)ccc3O[C@@H]2[C@H](CO)O1,> 100 µM (inactive),> 100
COCc1c(C#N)c(NCCc2ccc(F)cc2)nc(C)c1[N+](=O)[O-],> 100 µM (inactive),–

SMILES,AC50,AC50 [1] [µM]
O=C(NCc1ccccc1)c1ccc(-c2ccccc2F)o1,> 100 µM (inactive),28.8
COc1ccc(CC(=O)Nc2nc(-c3cc(OC)ccc3OC)cs2)cc1,> 100 µM (inactive),8.91
COc1ccc2oc(C(=O)NCc3ccco3)c(C)c2c1,> 100 µM (inactive),–
OC(COc1ccc(Cl)cc1)CN1CCN(c2ccccn2)CC1 (stereo not given),–,> 100
O=C(O)c1cccnc1SCc1ccccc1Cl,> 100 µM (inactive),42.8
Cc1ccc(NC(=O)c2ccc([N+](=O)[O-])o2)c(C)c1,> 100 µM (inactive),–
Cc1ccc(-n2cc(CNCCN3CCOC3=O)c(-c3ccc(F)cc3)n2)cc1,–,> 100
Clc1ccc(-c2nc3ccc(Br)cn3c2Cc2ccsc2)cc1,> 100 µM (inactive),35
CCCCCCCNC(=O)c1ccc(N2CCC3(CC2)OCCO3)c([N+](=O)[O-])c1,–,40.4
C=CCNc1ccc2c(c1)OC[C@H](CC(C)C)NS2(=O)=O,–,> 100
Cc1nnc2sc(SCC(=O)Nc3ccc(Br)cc3)nn2c1=O,> 100 µM (inactive),> 100
COCCN(C(=O)c1ccccc1F)c1nnc(-c2ccc(OC)cc2)s1,> 100 µM (inactive),> 100
Cn1cc(CN2CCCC(C(=O)Nc3cccc(-c4cc5ccccc5[nH]4)c3)C2)cn1 (stereo not given),–,> 100
Cc1ccsc1C(=O)OCC(=O)N1CCc2ccccc2C1,> 100 µM (inactive),> 100
CCC(=O)Nc1nc2ccc(NC(=O)c3cc(OC)c(OC)c(OC)c3)cc2s1,> 100 µM (inactive),–
CNC(=O)c1ccsc1NC(=O)c1ccc(S(=O)(=O)N2CCc3ccccc32)cc1,–,> 100
COc1ccc(C(=O)CSc2nc3ccccc3n2CC(=O)c2ccccc2)cc1,> 100 µM (inactive),–
CCCCNC(=O)C[C@@H]1C[C@@]2(C(=O)OC)CCCCC=C2N(Cc2ccccc2)C1=O,> 100 µM (inactive),> 100
Cc1ccc(S(=O)(=O)NCc2c(-c3ccccc3)noc2C)cc1,> 100 µM (inactive),–
CCc1ccc2[nH]c(C(=O)Nc3ccc4c(c3)OCO4)cc2c1,> 100 µM (inactive),–
O=C(Nc1cccc(O)c1)c1cc(-c2ccccc2Cl)on1,> 100 µM (inactive),–
O=c1[nH]c(C2CCCN(S(=O)(=O)c3ccccc3Cl)C2)nc2c1nnn2Cc1ccc2c(c1)OCCO2 (stereo not given),> 100 µM (inactive),–

SMILES,AC50,AC50 [1] [µM]
CC(C)(C)C1CCC(OCC(O)CN2CCN(c3ccccn3)CC2)CC1 (stereo not given),> 100 µM (inactive),44.7
S=c1nc(-c2cc(Cl)cc(Cl)c2)[nH][nH]1,> 100 µM (inactive),–
Cc1ccc(S(=O)(=O)NC(C)C(=O)NCc2ccc(Cl)cc2)cc1 (stereo not given),–,> 100
Cc1cc(C(=O)NCCC2=CCCCC2)ccc1[N+](=O)[O-],> 100 µM (inactive),> 100
CN1C(=O)c2cc(NC(=O)c3cccc(F)c3)ccc2OC[C@H]2O[C@@H](CC(=O)N3CCc4ccccc4C3)CC[C@@H]21,> 100 µM (inactive),–
Cc1cc(C)cc(NC(=O)c2cccc(NC(=O)C3C4CC5OC(=O)C3C5C4)c2)c1 (stereo not given),> 100 µM (inactive),–
COc1ccc([C@H]2C[C@H](O)C[C@@H](CCn3cc(-c4ccccc4)nn3)O2)cc1,–,> 100
O=C(C[C@@H]1CC[C@H]2[C@@H](COC[C@H](O)CN2C(=O)Nc2cc(Cl)cc(Cl)c2)O1)N1CCOCC1,> 100 µM (inactive),–
CC(C)Oc1ccc(C(CC(=O)O)NC(=O)C(Sc2ccccc2)c2ccccc2)cc1 (stereo not given),> 100 µM (inactive),> 100
COc1cc(C(N)=O)cc(Br)c1OCc1ccccc1,> 100 µM (inactive),–
CCc1nn2cc(C(=O)c3cc(Cl)ccc3O)cnc2c1-c1ccc(F)cc1,> 100 µM (inactive),> 100
c1cc2cc(-c3c(-c4ccc5c(c4)OCO5)noc3-c3ccsc3)ccc2[nH]1,> 100 µM (inactive),–
Cc1cc2nc(SCC(=O)O)nc(C)c2cc1C,–,> 100
Cc1cc(C(=O)Nc2cccc3c2O[C@H](CN(C)S(=O)(=O)c2ccc(Cl)cc2)[C@H](C)CN([C@H](C)CO)C3=O)n(C)n1,> 100 µM (inactive),27.8
Cc1cc(-c2ccc(C)c(S(=O)(=O)NC(C)Cc3ccco3)c2)on1 (stereo not given),> 100 µM (inactive),46.2
COC(=O)c1cc2c(c3c4cc(F)ccc4n(S(=O)(=O)c4cccc(C)c4)c13)C(=O)N(Cc1ccco1)C2,–,> 100
COC(=O)c1ccc(CN2CCCC(CO)(Cc3ccccc3F)C2)cc1 (stereo not given),> 100 µM (inactive),–
CCOC(=O)c1c(CS(=O)(=O)c2ccccc2)n(C)c2cc(Br)c(O)cc12,> 100 µM (inactive),–
Cc1c(Cc2ccc3c(c2)OCO3)sc(NC(=O)C2CC2)c1C(N)=O,> 100 µM (inactive),34.7
Cc1cccc(CSCC(=O)N2CCN(S(=O)(=O)c3ccccc3C#N)CC2)c1,> 100 µM (inactive),–
CCN(CC)CCN(C(=O)c1ccc2c(c1)CCCC2)c1nc2ccc(F)cc2s1,> 100 µM (inactive),46.3
O=C1NC(CCc2ccccc2)C(=O)N1Cc1cccc2ccccc12 (stereo not given),> 100 µM (inactive),51.5

# Source: PubChem BioAssay AID977622 (Broad Institute, 2014)
